Data: patent publication EP3539964A1, “BASE ACETAMIDE GLYCERIN ETHER MOLECULE, CHEMICAL SYNTHESIS METHOD THEREFOR, AND APPLICATIONS THEREOF IN FIELD OF GENE THERAPY” (Peking University, priority 2016, dated 2018)

How the values were obtained:
[1] = Particle size and morphology of liposomes by electron microscopy; type: physicochemical; conditions: liposome/nanoparticles self-assembled in water, electron microscopy (Fig. 5)
Method: The base-acetamide glycerin ether molecule has an amphiphilic structure and can be prepared into a supramolecular structure such as a liposome. Taking DNTA as an example, the preparation method of liposome is as follows: DNTA (1.18 mg, 1.56 µmol) is dissolved in methanol (1 mL), vortexed to fully dissolve, after centrifugation, DNTA methanol solution (12.8 µL) is measured out and adding to a 200 µL centrifuge tube, added with PBS (100 µL), vortexed (10 s) to mix well. The solution was placed in a PCR program for annealing. Procedure: Heating at 95°C for 10 minutes, cool down 5°C every 5 minutes until 15°C, then store at 4°C. After annealing was completed, the centrifuge tube was incubated at 40°C for 30 min for the complete evaporation of methanol to obtain the liposome solution.
Under transmission electron microscope (TEM), it can be seen that the neutral base lipid carrier molecules DNCA and DNTA can form stable and uniform nanoparticles in aqueous solution. The size of the DNTA molecules assembled in water is around 150 nm. The size of the liposome formed by self-assembly of DNCA carrier molecules in water is around 180 nm (Fig. 5).

[2] = system: MCF-7 cells; assay: Antisense nucleic acid (Cenersen) uptake; type: cell-based; conditions: liposomes, compared with blank group and DOCA/DOTA liposome groups (Fig. 8)
Method: The cells used in the transfection experiments were Hela cells. • (1) Plating: 300,000 cells were added to the six-well plate, and the volume per well was 1.8 mL; • (2) After 18-24 h, the samples were diluted in an appropriate amount of opti-MEM, blowing and suction with a pipette to mix well, 20 µL of the mixed […] The DNA-free and DNA-only wells were used as two negative controls, and the transfection reagent Lipofectamine 2000-DNA complex (the method of addition of transfection reagent and DNA group according to the protocol) was added as a positive control; • (3) Washing three times with 500 µL PBS; • (4) After 4 hours, the liquids in the culture wells were aspirated, after adding 250 µL of 5% trypsin each, they were placed in 1.5 mL EP tubes, the cells were fixed with 4% paraformaldehyde for 15 min; • (5) Centrifuging, discarding the supernatant, adding 400 µL PBS in each tube; • (6) Fluorescence intensity was measured by using flow cytometry;
The procedure was the same as the transfection experiments of DNCA- and DNTA-packed PolyG/PolyA (using DOCA and DOTA as controls), the cell line was selected from MCF-7 cell line.

[3] = system: Hela cells; assay: Transfection of FAM-labeled polyA/G, fluorescence intensity by flow cytometry; type: cell-based; conditions: liposomes mixed with FAM-polyA at base ratio 5/1, 100 nM FAM-polyA, 4 hours, Hela cells (Fig. 7)
Source text: Taking DNTA and DNCA as examples, FAM-labeled polyA/G was used as a template to study the nucleic acid transfection abilities of thymine base acetamide glycerin ethers. The specific coating and transfection process is as follows: DNTA or DNCA liposomes were formulated as mixed solutions with FAM-polyA or FAM-polyG at a base ratios of 5/1. […] The DNA-free and DNA-only wells were used as two negative controls, and the transfection reagent Lipofectamine 2000-DNA complex (the method of addition of transfection reagent and DNA group according to the protocol) was added as a positive control; • (3) Washing three times with 500 µL PBS; • (4) After 4 hours, the liquids in the culture wells were aspirated, after adding 250 µL of 5% trypsin each, they were placed in 1.5 mL EP tubes, the cells were fixed with 4% paraformaldehyde for 15 min; • (5) Centrifuging, discarding the supernatant, adding 400 µL PBS in each tube; • (6) Fluorescence intensity was measured by using flow cytometry;

[4] = Cytotoxicity using CCK-8 kit; type: cell-based; conditions: for viability at 72 h, 60 µM: 72 hours after addition, concentration of 60 µM, read-out: cell survival rate; for cytotoxicity: CCK-8 kit (Fig. 6)
Method: When base acetamide glycerin ether molecules should is to be used as novel biomaterials in the field of gene therapy, they must have good biocompatibility. Two base acetamide glycerin ether compounds (DOCA and DOTA) were studied for cytotoxicity using CCK-8 kit. […] After 72 hours of addition of the base acetamide glycerin ether compound at a concentration of 60 µM, the cell survival rate was close to 100%, indicating good biocompatibility (Fig. 6).

Row | size [1] | Compound | uptake of antisense nucleic acid [2] | transfection of FAM-polyA into cells [3] | viability at 72 h, 60 µM [4] | cytotoxicity [4]
1 | around 180 nm | CCCCCCCC/C=C\CCCCCCCCOCC(CNC(=O)Cn1ccc(N)nc1=O)OCCCCCCCC/C=C\CCCCCCCC (stereo not shown) [DNCA, 1,2,-bis(oleyl)-glycero-3-amine-(cytosin-1-yl)-acetyl ester] | could significantly increase the uptake ability of MCF-7 cells | can successfully transport FAM-polyA into cells | ~100% | no obvious cytotoxicity
2 | around 150 nm | CCCCCCCC/C=C\CCCCCCCCOCC(CNC(=O)Cn1cc(C)c(=O)[nH]c1=O)OCCCCCCCC/C=C\CCCCCCCC (stereo not shown) [DNTA, 1,2,-bis(oleyl)-glycero-3-amine-(thymidine-1-yl)-acetyl ester] | could significantly increase the uptake ability of MCF-7 cells | can successfully transport FAM-polyA into cells | ~100% | no obvious cytotoxicity
